Measured values published in ChEMBL document CHEMBL5131391, “One-pot three-component synthesis of novel pyrazolo[3,4-b]pyridines as potent antileukemic agents” (Eur J Med Chem, 2022).

Experiments:
Type in all cases: functional
RPMI-8226 [1] = assay: Antiproliferative activity against human RPMI-8226 cells assessed as growth inhibition measured after 48 hrs by NCI protocol based SRB assay
K562 = assay: Antiproliferative activity against human K562 cells assessed as growth inhibition measured after 48 hrs by NCI protocol based SRB assay
HOP-62 = assay: Antiproliferative activity against human HOP-62 cells assessed as growth inhibition measured after 48 hrs by NCI protocol based SRB assay
A549 [2] = assay: Antiproliferative activity against human A549 cells assessed as growth inhibition measured after 48 hrs by NCI protocol based SRB assay
EKVX = assay: Antiproliferative activity against human EKVX cells assessed as growth inhibition measured after 48 hrs by NCI protocol based SRB assay
NCI-H322M [3] = assay: Antiproliferative activity against human NCI-H322M cells assessed as growth inhibition measured after 48 hrs by NCI protocol based SRB assay
HCT-116 = assay: Antiproliferative activity against human HCT-116 cells assessed as growth inhibition measured after 48 hrs by NCI protocol based SRB assay
KM12 [4] = assay: Antiproliferative activity against human KM12 cells assessed as growth inhibition measured after 48 hrs by NCI protocol based SRB assay
SF-268 = assay: Antiproliferative activity against human SF-268 cells assessed as growth inhibition measured after 48 hrs by NCI protocol based SRB assay
SNB-75 = assay: Antiproliferative activity against human SNB-75 cells assessed as growth inhibition measured after 48 hrs by NCI protocol based SRB assay
U-251 = assay: Antiproliferative activity against human U-251 cells assessed as growth inhibition measured after 48 hrs by NCI protocol based SRB assay
LOX IMVI = assay: Antiproliferative activity against human LOX IMVI cells assessed as growth inhibition measured after 48 hrs by NCI protocol based SRB assay
UACC-257 = assay: Antiproliferative activity against human UACC-257 cells assessed as growth inhibition measured after 48 hrs by NCI protocol based SRB assay
IGROV-1 = assay: Antiproliferative activity against human IGROV-1 cells assessed as growth inhibition measured after 48 hrs by NCI protocol based SRB assay
OVCAR-3 = assay: Antiproliferative activity against human OVCAR-3 cells assessed as growth inhibition measured after 48 hrs by NCI protocol based SRB assay
OVCAR-8 = assay: Antiproliferative activity against human OVCAR-8 cells assessed as growth inhibition measured after 48 hrs by NCI protocol based SRB assay
786-0 [5] = assay: Antiproliferative activity against human 786-0 cells assessed as growth inhibition measured after 48 hrs by NCI protocol based SRB assay
ACHN = assay: Antiproliferative activity against human ACHN cells assessed as growth inhibition measured after 48 hrs by NCI protocol based SRB assay
CAKI-1 = assay: Antiproliferative activity against human CAKI-1 cells assessed as growth inhibition measured after 48 hrs by NCI protocol based SRB assay
T47D [6] = assay: Antiproliferative activity against human T47D cells assessed as growth inhibition measured after 48 hrs by NCI protocol based SRB assay
RPMI-8226 [7] = assay: Cytostatic activity in human RPMI-8226 cells assessed as tumor growth inhibition measured after 48 hrs by NCI protocol based SRB assay
SR [8] = assay: Cytostatic activity in human SR cells assessed as tumor growth inhibition measured after 48 hrs by NCI protocol based SRB assay
A549 [9] = assay: Cytostatic activity in human A549 cells assessed as tumor growth inhibition measured after 48 hrs by NCI protocol based SRB assay
NCI-H522 = assay: Cytostatic activity in human NCI-H522 cells assessed as tumor growth inhibition measured after 48 hrs by NCI protocol based SRB assay
NCI-H322M [10] = assay: Cytostatic activity in human NCI-H322M cells assessed as tumor growth inhibition measured after 48 hrs by NCI protocol based SRB assay
NCI-H226 = assay: Cytostatic activity in human NCI-H226 cells assessed as tumor growth inhibition measured after 48 hrs by NCI protocol based SRB assay
KM12 [11] = assay: Cytostatic activity in human KM12 cells assessed as tumor growth inhibition measured after 48 hrs by NCI protocol based SRB assay
HT-29 = assay: Cytostatic activity in human HT-29 cells assessed as tumor growth inhibition measured after 48 hrs by NCI protocol based SRB assay
M14 = assay: Cytostatic activity in human M14 cells assessed as tumor growth inhibition measured after 48 hrs by NCI protocol based SRB assay
Malme-3M = assay: Cytostatic activity in human Malme-3M cells assessed as tumor growth inhibition measured after 48 hrs by NCI protocol based SRB assay
SK-MEL-5 = assay: Cytostatic activity in human SK-MEL-5 cells assessed as tumor growth inhibition measured after 48 hrs by NCI protocol based SRB assay
SK-MEL-28 = assay: Cytostatic activity in human SK-MEL-28 cells assessed as tumor growth inhibition measured after 48 hrs by NCI protocol based SRB assay
UACC-62 = assay: Cytostatic activity in human UACC-62 cells assessed as tumor growth inhibition measured after 48 hrs by NCI protocol based SRB assay
OVCAR-4 = assay: Cytostatic activity in human OVCAR-4 cells assessed as tumor growth inhibition measured after 48 hrs by NCI protocol based SRB assay
OVCAR-5 = assay: Cytostatic activity in human OVCAR-5 cells assessed as tumor growth inhibition measured after 48 hrs by NCI protocol based SRB assay
786-0 [12] = assay: Cytostatic activity in human 786-0 cells assessed as tumor growth inhibition measured after 48 hrs by NCI protocol based SRB assay
RXF 393 = assay: Cytostatic activity in human RXF 393 cells assessed as tumor growth inhibition measured after 48 hrs by NCI protocol based SRB assay
T47D [13] = assay: Cytostatic activity in human T47D cells assessed as tumor growth inhibition measured after 48 hrs by NCI protocol based SRB assay
BT-549 = assay: Cytostatic activity in human BT-549 cells assessed as tumor growth inhibition measured after 48 hrs by NCI protocol based SRB assay
SR [14] = assay: Antiproliferative activity against human SR cells assessed as growth inhibition at 10 uM measured after 48 hrs by NCI protocol based SRB assay relative to control; details: read-out: GI
[15] = read-out: LC50 (the source's name)

Compound: N#Cc1c(-c2ccccc2)nc2c(c(-c3ccccc3)nn2-c2ccccc2)c1-c1ccc(O)cc1
- GI50 (RPMI-8226 [1]): 2420 nM
- CC50 (RPMI-8226 [1]; [15]): > 100 µM
- GI50 (K562): 2680 nM
- CC50 (K562; [15]): > 100 µM
- GI50 (HOP-62): 2120 nM
- CC50 (HOP-62; [15]): 9.53 µM
- GI50 (A549 [2]): 2570 nM
- CC50 (A549 [2]; [15]): 84.2 µM
- GI50 (EKVX): 1920 nM
- CC50 (EKVX; [15]): 21.9 µM
- GI50 (NCI-H322M [3]): 1570 nM
- CC50 (NCI-H322M [3]; [15]): 5.56 µM
- GI50 (HCT-116): 2630 nM
- CC50 (HCT-116; [15]): 83.4 µM
- GI50 (KM12 [4]): 2020 nM
- CC50 (KM12 [4]; [15]): 14.9 µM
- GI50 (SF-268): 2830 nM
- CC50 (SF-268; [15]): 47.2 µM
- GI50 (SNB-75): 2030 nM
- CC50 (SNB-75; [15]): 28.3 µM
- GI50 (U-251): 1630 nM
- CC50 (U-251; [15]): 9.71 µM
- GI50 (LOX IMVI): 1680 nM
- CC50 (LOX IMVI; [15]): 5.55 µM
- GI50 (UACC-257): 3.13 µM
- CC50 (UACC-257; [15]): 6.55 µM
- GI50 (IGROV-1): 1800 nM
- CC50 (IGROV-1; [15]): 7.28 µM
- GI50 (OVCAR-3): 2000 nM
- CC50 (OVCAR-3; [15]): 9.91 µM
- GI50 (OVCAR-8): 3.14 µM
- CC50 (OVCAR-8; [15]): > 100 µM
- GI50 (786-0 [5]): 2160 nM
- CC50 (786-0 [5]; [15]): 31.8 µM
- GI50 (ACHN): 2240 nM
- CC50 (ACHN; [15]): 20.5 µM
- GI50 (CAKI-1): 2480 nM
- CC50 (CAKI-1; [15]): 23.8 µM
- GI50 (T47D [6]): 3.05 µM
- CC50 (T47D [6]; [15]): > 100 µM
- TGI (RPMI-8226 [7]): 17.9 µM
- TGI (SR [8]): > 100 µM
- TGI (A549 [9]): 6.87 µM
- TGI (NCI-H522): 6.03 µM
- TGI (NCI-H322M [10]): 2960 nM
- TGI (NCI-H226): 4.51 µM
- TGI (KM12 [11]): 4.76 µM
- TGI (HT-29): 6.44 µM
- TGI (M14): 5.48 µM
- TGI (Malme-3M): 3.83 µM
- TGI (SK-MEL-5): 3.19 µM
- TGI (SK-MEL-28): 3.05 µM
- TGI (UACC-62): 3.18 µM
- TGI (OVCAR-4): 4.66 µM
- TGI (OVCAR-5): 3.41 µM
- TGI (786-0 [12]): 5.35 µM
- TGI (RXF 393): 2350 nM
- TGI (T47D [13]): 23.8 µM
- TGI (BT-549): 4.45 µM

Compound: N#Cc1c(-c2ccco2)nc2c(c(-c3ccccc3)nn2-c2ccccc2)c1-c1ccc(O)cc1
- inhibition of growth at 10 µM (SR [14]): 81%
